# Patent US20140357512A1, “HISTONE DEACETYLASE (HDAC) BIOMARKERS IN MULTIPLE MYELOMA” (priority 2013, published 2014)
# System: human myeloma cell line MM.1S
# Experiment: SILAC acetylated-lysine peptide profiling, HDAC inhibitor vs DMSO (light/heavy ratio)
# Type: cell-based
# Excerpt: An embodiment of the invention comprises utilizing the SILAC method in order to quantitate changes in protein expression between two or more populations of cells. The SILAC method is a technique based on mass spectrometry that detects differences in protein abundance among samples using non-radioactive isotopic labeling. The SILAC method is known in the art, and described in detail in Ong et al., “Stable Isotope Labeling by Amino Acids in Cell Culture, SILAC, as a Simple and Accurate Approach to Expression Proteomics”, Molecular & Cellular Proteomics, vol. 1, pp. 376-386 (2002), which is incorporated herein by reference in its entirety.
# Briefly, the SILAC method involves growing two populations of cells in cell culture. The first population of cells is grown in growth media containing normal amino acids (“normal media”). The second population of cells is grown in media lacking a standard essential amino acid (such as lysine), but is then supplemented with a non-radioactive, isotopically labeled form of that essential amino acid (such as lysine labeled with ^13C atoms, rather than normal ^12C atoms), which is called “heavy media”. When the two populations of cells are each growing in the medium, they incorporate the amino acids into all of their proteins. The growth of cells maintained in the heavy media is no different from that in normal media. All peptides containing the heavy amino acids are heavier than their normal counterparts. The cells from each of the two populations of cells are lysed. The lysates from each of the two cell populations are then combined. The combined cell lysates are then analyzed by mass spectrometry. Pairs of chemically identical peptides of different stable isotope composition can be differentiated in a mass spectrometer due to their difference in mass. The ratio of peak intensities in the mass spectrum for such peptide pairs reflects the abundance ratio for the two proteins.
# This example describes SILAC studies that were performed to compare the effects of three different HDAC inhibitors (Compound A, Compound B, and tubastatin A) to a control on a human multiple myeloma cell line. The HDAC inhibitors were also compared amongst themselves to determine differences in their effects.
# A human myeloma cell line MM.1S was grown using either ^12C (light) or ^13C (heavy) lysine containing culture medium. The “heavy” cells were treated with DMSO as the control, and the “light” cells were treated with a single HDAC inhibitor at 37° C. for 6 hours. The heavy and light cells were lysed, and the lysates were mixed in 1:1 ratio and digested with the protease trypsin. The acetylated lysine containing peptides (due to the action of the HDAC inhibitor) in the digested peptide pool were captured by a non-specific anti-acetylated lysine antibody cocktail (the antibodies identify both light and heavy acetylated peptides), and subjected to mass spectrometry analysis in order to identify thousands of individual peptides.
# Thousands of peptides were identified in pairs (^12C and ^13C) due to their known mass differences. The amino acid sequence and quantitative ratio (Light/Heavy) of a given peptide in two differentially treated cell lysates were then determined and annotated with their possible protein (gene) sources.
# As stated above, three HDAC inhibitors (Compound A, Compound B, and Tubastatin A) were used. Thus, the SILAC method was performed three times, with a different HDAC inhibitor compared to a control each time. Accordingly, there are three pairs of quantitative data in the table below, i.e., Compound A:DMSO, Compound B:DMSO, and Tubastatin A:DMSO. A cut-off of 1.30 fold of change (increase or decrease) was then used to determine “changed” or “+” in the table, and any peptides with a fold of change less than 1.3 fold were determined to be “unchanged” or “0” in the table. Those peptides that were not identified were marked as “NA” in the table. […]
compound,measurement,setting,value
"O=C(NO)c1cnc(NC2(c3cccc(F)c3)CCCCC2)nc1 [Compound B, 2-((1-(3-fluorophenyl)cyclohexyl)amino)-N-hydroxypyrimidine-5-carboxamide]","light to heavy ratio (L/H ratio), log 2 scale, acetylated peptide VGDK(ac)[…] (SEQ ID NO: 773)","10 kDa heat shock protein mitochondrial [70], gene HSPE1, drug:DMSO",0.00
same,light to heavy ratio (L/H ratio) of acetylated peptide IQEVLK(ac)HAR (SEQ ID NO: 264),"39S ribosomal protein L20 mitochondrial [26], MRPL20, drug:DMSO",0.00 log 2
same,light to heavy ratio (L/H ratio) of acetylated peptide KDVHMPK(ac)HPELADK (SEQ ID NO: 353),"40S ribosomal protein S10 [31], RPS10, drug:DMSO",0.56 log 2
same,light to heavy ratio (L/H ratio) of acetylated peptide NK(ac)[…] (SEQ ID NO: 559),"40S ribosomal protein S17 [49], gene RPS17, RPS17L, inhibitor:DMSO",0.00 log 2
same,light to heavy ratio (L/H ratio) of acetylated peptide IDK(ac)PILK (SEQ ID NO: 506),"60S ribosomal protein L8 [177], gene RPL8, inhibitor:DMSO",0.00 log 2
same,light to heavy ratio (L/H ratio) of acetylated peptide GPLDK(ac)WR (SEQ ID NO: 622),"60S ribosomal protein L10-like [208], gene RPL10L, inhibitor:DMSO",0.00 log 2
same,"light to heavy ratio (L/H ratio), log 2 scale, acetylated peptide YMVK(ac)SCGK (SEQ ID NO: 811)","60S ribosomal protein L10 [78], gene SNORA70, RPL10, drug:DMSO",0.00
same,"light to heavy ratio (L/H ratio), log 2 scale, acetylated peptide VDEVK(ac)STIK (SEQ ID NO: 805)","60S ribosomal protein L10a [152], gene RPL10A, drug:DMSO",0.00
same,light to heavy ratio (L/H ratio) of acetylated peptide VITEEEK(ac)NFK (SEQ ID NO: 522),"60S ribosomal protein L13 [174], gene RPL13, inhibitor:DMSO",0.00 log 2
same,light to heavy ratio (L/H ratio) of acetylated peptide K(ac)FAYLGR (SEQ ID NO: 614),"60S ribosomal protein L13a [134], gene SNORD32A, RPL13A, SNORD33, SNORD34, inhibitor:DMSO",0.00 log 2
same,"light to heavy ratio (L/H ratio), log 2 scale, acetylated peptide LAHEVGWK(ac)[…] (SEQ ID NO: 812)","60S ribosomal protein L13a [148], gene SNORD32A, RPL13A, SNORD33, SNORD34, drug:DMSO",0.00
same,light to heavy ratio (L/H ratio) of acetylated peptide GHK(ac)FHHTIGGSR (SEQ ID NO: 519),"60S ribosomal protein L15 [179], gene RPL15, inhibitor:DMSO",0.00 log 2
same,"light to heavy ratio (L/H ratio), log 2 scale, acetylated peptide SFVK(ac)[…] (SEQ ID NO: 770)","60S ribosomal protein L27 [73], gene RPL27, drug:DMSO",0.00
same,"light to heavy ratio (L/H ratio), log 2 scale, acetylated peptide YSVDIPLDK(ac)TVVNK (SEQ ID NO: 807)","60S ribosomal protein L27 [93], gene RPL27, drug:DMSO",0.00
same,light to heavy ratio (L/H ratio) of acetylated peptide NCSSFLIK(ac)R (SEQ ID NO: 558),"60S ribosomal protein L28 [19], gene RPL28, inhibitor:DMSO",0.00 log 2
same,light to heavy ratio (L/H ratio) of acetylated peptide IHGVGFK(ac)K (SEQ ID NO: 542),"60S ribosomal protein L31 [39], gene RPL31, inhibitor:DMSO",0.00 log 2
same,"light to heavy ratio (L/H ratio), log 2 scale, acetylated peptide LNK(ac)AVWAK (SEQ ID NO: 808)","60S ribosomal protein L31 [70], gene RPL31, drug:DMSO",0.00
same,light to heavy ratio (L/H ratio) of acetylated peptide LWSK(ac)AIFAGYK (SEQ ID NO: 538),"60S ribosomal protein L35a [8], gene RPL35A, inhibitor:DMSO",0.00 log 2
same,light to heavy ratio (L/H ratio) of acetylated peptide KIEISQHAK(ac)YTCSFCGK (SEQ ID NO: 351),"60S ribosomal protein L37a [36], RPL37A, drug:DMSO",0.41 log 2
same,light to heavy ratio (L/H ratio) of acetylated peptide VMEHFIK(ac)LYK (SEQ ID NO: 276),"78 kDa glucose-regulated protein [268], HSPA5, drug:DMSO",0.00 log 2
same,light to heavy ratio (L/H ratio) of acetylated peptide AK(ac)[…] (SEQ ID NO: 266),"78 kDa glucose-regulated protein [326], HSPA5, drug:DMSO",0.00 log 2
same,light to heavy ratio (L/H ratio) of acetylated peptide FK(ac)[…] (SEQ ID NO: 333),"116 kDa U5 small nuclear ribonucleoprotein component [790], EFTUD2, drug:DMSO",−0.99 log 2
same,L/H ratio of acetylated peptide,"(ac)AQLGK(ac)LLK (SEQ ID NO: 421), NEDD8-activating enzyme E1 regulatory subunit [6], NAE1",0.70 log 2
same,L/H ratio of acetylated peptide,"(ac)MEDYTK(ac)IEK (SEQ ID NO: 374), Isoform 2 of Cyclin-dependent kinase 1 [6], CDK1",−0.51 log 2
same,"light to heavy ratio (L/H ratio) of acetylated peptide, log 2 scale","(ac)SIGVPIK(ac)[…] (SEQ ID NO: 224), Small nuclear ribonucleoprotein Sm D3 [8], SNRPD3",0.00
same,L/H ratio of acetylated peptide,"(ac)SNMEK(ac)HLFNLK (SEQ ID NO: 376), Charged multivesicular body protein 1b [6], CHMP1B",0.85 log 2
same,L/H ratio of acetylated peptide,"(ac)SSNECFK(ac)CGR (SEQ ID NO: 379), Isoform 1 of Cellular nucleic acid-binding protein [8], CNBP",−0.82 log 2
same,"light to heavy ratio (L/H ratio) of acetylated peptide, log 2 scale","(ac)SVFGK(ac)LFGAGGGK (SEQ ID NO: 143), Charged multivesicular body protein 4b [6], CHMP4B",0.00
same,L/H ratio of acetylated peptide,"(ac)[…](ac)DLK (SEQ ID NO: 437), Isoform 2 of Prothymosin alpha [15], PTMA, MIR1244-3, MIR1244-2, MIR1244-1",0.61 log 2
same,L/H ratio of acetylated peptide,"(ac)[…](ac)SAR (SEQ ID NO: 464), Voltage-dependent anion-selective channel protein 1 [12], VDAC1",−0.78 log 2
same,L/H ratio of acetylated peptide,"ACK(ac)LAIR (SEQ ID NO: 463), Transitional endoplasmic reticulum ATPase [696], VCP",−0.58 log 2
same,L/H ratio of acetylated peptide NLQK(ac)EVIHR (SEQ ID NO: 125),"ACOX1 [504], log 2 scale, drug vs DMSO",0.00
